In patent publication US8969590B1, “Autotaxin inhibitors” (University of Memphis Research Foundation, priority 2007, dated 2015):

Assays:
[1] = target: T1, ATX (autotaxin) (Homo sapiens, UniProt Q13822); assay: ATX inhibition assay: ATX-catalyzed FS-3 hydrolysis, fluorescence, concentrated conditioned medium from MDA MB-435 cells as ATX source; format: biochemical; details: for % ATX Activity at 10 μM: 10 μM compound, FS-3 substrate, read at 1 hour, normalized to vehicle control, mean ± S.D. of at least three wells
T1 construct: conditioned serum-free medium (CCM) from MDA MB-435 cells as the source of ATX; endogenous in cells; host or cells: MDA-MB-435 cells (secreted into serum-free conditioned medium, concentrated ~10 fold)
Protocol: The efficacy of these compounds was determined by evaluating fluorescence of autotaxin at specific wavelengths. The test protocol was as follows:
In terms of ATX inhibition analysis determinations, MDA-MB-435 cells were cultured at 37° C. and 5% CO2 in Dulbecco's Modified Eagle Medium (DMEM) (MediaTech, Herndon, Va.) containing 5% fetal bovine serum (Hyclone, Logan, Utah), 100 U/ml penicillin, 100 μg/ml streptomycin (Hyclone, Logan, Utah) and 292 μg/ml L-glutamine (Hyclone, Logan, Utah). Cells were grown to ˜80% confluence at which time the cells were washed twice with sterile phosphate buffered saline prior to the addition of serum free DMEM containing L-glutamine. Conditioned medium was collected after 24-30 hours, supplemented with 20% ethylene glycol and was clarified by centrifugation at 3000×g and 4° C. for 10 min. The media was concentrated ˜10 fold and buffer exchanged into Tris (50 mM, pH 7.4) containing 20% ethylene glycol using an Amicon 8050 cell fitted with a PM30 filter (Millipore, Billerica, Mass.). Aliquots of concentrated conditioned media were stored at 4° C. until needed.
ATX inhibition was assayed using FS-3 (Echelon Biosciences, Inc., Salt Lake City, Utah, USA) as a substrate and ˜10 times concentrated conditioned serum-free medium (CCM) from MDA MB-435 cells as the source of ATX. Assays were performed in 96-well plates with CCM comprising one-third of the total volume and final FS-3 and charcoal-stripped fatty acid free BSA concentrations of 1 and 30 μM in assay buffer (1 mM each CaCl2 and MgCl2, 5 mM KCl, 140 mM NaCl, 50 mM Tris pH 8.0). Fluorescence was read at 5 minute intervals by a Synergy2 system (BioTek, Winooski, Vt.) with excitation and emission wavelengths of 485 and 538 nm, respectively. Results are shown at 1 hour, at which point all fluorescence changes as a function of time were linear. Fluorescence readings were normalized to vehicle control after subtraction of fluorescence in the absence of CCM. Data are shown as the mean±S.D. of at least three wells.

[2] = target: ATX (Homo sapiens, UniProt Q13822); details: prior art; cited from earlier work

| Structure (SMILES) | % ATX Activity at 10 μM [1] [%] | further results |
| --- | --- | --- |
| O=C(O)c1cccc(NC(=O)c2ccc3c(c2)C(=O)N(c2ccc(/N=N/c4ccccc4)cc2)C3=O)c1 [Compound 5564949] | 45 ± 10 | inhibition at 10 µM ([1]; 10 μM concentration, read-out: ATX inhibition (reduction of ATX-catalyzed FS-3 hydrolysis)): 51% |
| N[C@@H](Cc1c[nH]cn1)C(=O)O [L-histidine] | – | Concentration required for ATX inhibition efficacy [2]: millimolar concentrations were required for any efficacy |
| O=C(O)c1ccc(NC(=O)c2ccc3c(c2)C(=O)N(c2ccc(/N=N/c4ccccc4)cc2)C3=O)cc1 [Compound 5564676] | – | ATX inhibition (reduction of ATX-catalyzed FS-3 hydrolysis) ([1]; 10 μM concentration): no reduction levels at all |
| O=C(O)c1ccc(CN2C(=O)c3ccc(C(=O)c4ccc5c(c4)C(=O)N(Cc4ccc(C(=O)O)cc4)C5=O)cc3C2=O)cc1 [Compound 5761473] | 46 ± 6 | – |
| O=C(O)c1ccc2c(c1)C(=O)N(c1cccc(C(=O)Nc3cccc(Cl)c3)c1)C2=O [Compound 5711925] | 48 ± 5 | – |
| O=C(O)c1cc(C(=O)O)cc(N2C(=O)c3ccc(C(=O)c4ccc5c(c4)C(=O)N(c4cc(C(=O)O)cc(C(=O)O)c4)C5=O)cc3C2=O)c1 [Compound 5186522] | 49 ± 10 | – |
| O=C(NN1C(=O)c2ccc(C(=O)c3ccc4c(c3)C(=O)N(NC(=O)c3ccncc3)C4=O)cc2C1=O)c1ccncc1 [Compound 5538444] | 31 ± 4 | – |
| O=C(O)c1ccc(Oc2ccc(C(=O)c3ccc4c(c3)C(=O)N(c3cccc5ccccc35)C4=O)cc2)cc1 [Compound 5210574] | 31 ± 5 | – |
| CCn1c(SCC(=O)Nc2ccc(C(C)=O)cc2)nc2nc3c(cc2c1=O)CCCC3 [Compound 7921385] | 21 ± 6 | – |
